Experiment [1] deals with T1, human M4 receptor (Homo sapiens, UniProt P08173).
T1 sequence (P08173 1-479): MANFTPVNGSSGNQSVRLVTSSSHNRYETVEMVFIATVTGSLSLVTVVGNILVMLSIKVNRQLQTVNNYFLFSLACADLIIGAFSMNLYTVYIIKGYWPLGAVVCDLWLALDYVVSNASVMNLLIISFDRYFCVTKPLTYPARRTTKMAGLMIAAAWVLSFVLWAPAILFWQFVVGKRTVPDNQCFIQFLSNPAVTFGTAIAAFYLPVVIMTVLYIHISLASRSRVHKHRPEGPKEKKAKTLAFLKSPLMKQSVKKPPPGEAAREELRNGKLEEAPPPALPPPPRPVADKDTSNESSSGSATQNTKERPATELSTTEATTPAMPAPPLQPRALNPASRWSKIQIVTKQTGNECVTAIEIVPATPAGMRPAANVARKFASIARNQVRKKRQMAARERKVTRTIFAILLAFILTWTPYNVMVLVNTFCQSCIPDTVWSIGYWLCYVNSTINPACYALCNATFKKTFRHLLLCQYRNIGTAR
Nature of the experiment: cAMP assay for M4 positive allosteric modulators (M4 PAM cAMP assay). Type of experiment: cell-based. Further details: expressed in transfected cells; host or cells: CHO-K1. Conditions: Table 1; CHO-K1 cells expressing human M4; forskolin 7.5 μM + acetylcholine EC20 (0.2 nM). On the procedure:
The potency of M4 PAMs was determined using a cell-based cyclic adenosine monophosphate assay. The assay was performed with CHO-Kl cells stably expressing untagged human M4 receptor and cAMP was quantified using the Nano-TRF Detection Assay kit (Roche, Cat. No. 05214386) as described in the kit instructions. The cells were grown in Ham's F-12 Nutrient mix supplemented with 10% FBS and 200 μg/ml geneticin until they reached 80% confluency. The cells were washed with PBS, detached with accutase and resuspended in assay buffer consisting of HBSS and 0.1% BSA. They were then seeded in black 384-well plates (Corning, Cat. No. 3764) at a density of 20,000 cells/20 μl per well until the addition of compounds.
Test compounds were serially diluted 1:2 in 100% DMSO and spotted in 384-well plates at 0.5 μl/well. The compounds were then diluted in water containing IBMX (Sigma, Cat. No. 17018) and a sample (5 μl) was added to the cells for 15 minutes at 37° C./5% CO2. After this incubation the cells were stimulated with a combination of forskolin (7.5 μM) and acetylcholine EC20 (0.2 nM) in assay buffer for 30 minutes at 37° C./5% CO2. The assay was stopped by adding cAMP detection mix (15 μl/well, containing detergents for cell lysis) for one hour at RT.
The test plates were read using a SpectraMax i3x reader (Molecular Devices). The exported raw data was used to calculate the FRET signal based on the P-factor as per cAMP kit instructions. The data was normalized to the activity of acetylcholine plus forskolin, with 2 nM of acetylcholine plus 7.5 μM forskolin defined as 100% activity. Dose response curves were fitted to the percent activity data of the compounds using a sigmoidal dose response model (XLfit, IDBS) and the data were reported as EC50 and percent efficacy.
A general note: Cyclic AMP is a second messenger, typically raised through Gs and lowered through Gi signalling.

Experiment [2] concerns the target T1, human M4 receptor. Nature of the experiment: Calcium flux assay using fluorescent imaging (M4 PAM FLIPR assay). Type of experiment: cell-based. Further details: expressed in transfected cells; host or cells: CHO (monoclonal line, clone 2). Conditions: Table 1; CHO cells expressing human M4+Gqi5; acetylcholine EC20. As to the method:
CHO cells were transfected with expression plasmid encoding the human M4 receptor and a Gqi5 construct to redirect Gi signaling to calcium. Stable cells were cloned by limiting dilution to yield a monoclonal cell line expressing human M4+Gqi5 (clone 2). The stable cells were grown in DMEM containing 10% FBS, 200 ug/ml Geneticin and 800 ug/ml Hygromycin at 37° C. in a 10% CO2 incubator at 95% humidity.
Calcium Flux Assay Using Fluorescent Imaging (“M4 PAM FLIPR” Assay)
On the afternoon before the assay, cells were plated at a density of 50,000 cells/well into black 96 well plates with clear bottoms to yield a confluent monolayer the next day. Hanks balanced salt solution, without phenol red, containing 20 mM HEPES (pH 7.3) and 2.5 mM probenecid (assay buffer) was prepared fresh for each experiment. Compound dilutions were made using a Beckman Biomek 2000 laboratory automation workstation, in assay buffer. The dye-loading buffer consisted of a final concentration of 2 μM Fluo-4-AM (dissolved in DMSO and pluronic acid) and 65 μg/ml amidoblack in assay buffer. The existing culture media was removed from the wells and 100 μl of the dye-loading buffer was added to each well and incubated for approximately 90 min at 37° C. in a 5% CO2 incubator at 95% humidity.
Calcium flux in the dye-loaded cells was measured with the fluorescence reader Hamamatsu FDSS 7000. To test compounds as agonists, compound addition (25 μl) was made 10 s into the fluorescent measurements and fluorescent response was recorded for 3 minutes. The fluorescence data was expressed as percentage of the fluorescence obtained by an EC100 concentration (3 μM) of the endogenous full agonist acetylcholine. Each test compound concentration-response curve was constructed using a four parameter logistic equation in Microsoft Excel XLFit as follows:
Y=Minimum+((Maximum−Minimum)/(1+10^(LogEC50−X)nH)).
The concentration of agonist that produced a half-maximal response is represented by the EC50 value. Maximum and minimum are the maximum and minimum fluorescence signal in % respectively. nH is the Hill slope.
To measure positive allosteric modulator activity 25 μl of an EC20 concentration of the endogenous agonist acetylcholine is added to the cells already pre-incubated with the test compound for 15 minutes.
The M4 PAM dose response is constructed using the agonist dose-response equation above. The concentration of PAM that produced a half-maximal response is represented by the EC50 value and the maximum signal measured is the PAM efficacy expressed in % of the EC100 (3 μM) acetylcholine response. • cAMP Assay for M4 Positive Allosteric Modulators (“M4 PAM cAMP” Assay)
(In general: A change in cytosolic calcium serves as a functional read-out for many receptors and channels.)

Experimental findings from patent US20220289746A1, “PYRROLIDINE DERIVATIVES” (Hoffmann-La Roche Inc., priority 2019, published 2022) are described below.

What is called EC50 is the concentration at which the effect is half-maximal.

With `Cc1ncncc1N1CC[C@@H](C(=O)N2Cc3nc(C)c(Cl)c(C)c3C2)C1` [Example 37, (3-chloro-2,4-dimethyl-5,7-dihydropyrrolo[3,4-b]pyridin-6-yl)-[(3R)-1-(4-methylpyrimidin-5-yl)pyrrolidin-3-yl]methanone], the EC50 on human M4 receptor [1] is 405 nM; on human M4 receptor [2] it was 394 nM.
For `Cc1nc2c(c(C)c1Cl)CN(C(=O)[C@@H]1CCN(c3ccnnc3)C1)C2` [Example 38, (3-chloro-2,4-dimethyl-5,7-dihydropyrrolo[3,4-b]pyridin-6-yl)-[(3R)-1-pyridazin-4-ylpyrrolidin-3-yl]methanone], the values for the EC50 at human M4 receptor [1] and on human M4 receptor [2] were 332 nM and 274 nM, respectively.
On the same counts, the results for `Cc1nc2c(c(C)c1Cl)CN(C(=O)[C@@H]1CCN(c3cccnn3)C1)C2` [Example 39, (3-chloro-2,4-dimethyl-5,7-dihydropyrrolo[3,4-b]pyridin-6-yl)-[(3R)-1-pyridazin-3-ylpyrrolidin-3-yl]methanone] are 2200 nM and 2520 nM.
Turning to `Cc1ccc(N2CC[C@@H](C(=O)N3Cc4nc(C)c(Cl)c(C)c4C3)C2)nn1` [Example 40, (3-chloro-2,4-dimethyl-5,7-dihydropyrrolo[3,4-b]pyridin-6-yl)-[(3R)-1-(6-methylpyridazin-3-yl)pyrrolidin-3-yl]methanone], the EC50 was 1990 nM at human M4 receptor [1] and 1290 nM at human M4 receptor [2].
For `Cc1nc2c(c(C)c1Cl)CN(C(=O)[C@@H]1CCN(c3ccc(C(F)(F)F)nn3)C1)C2` [Example 41, (3-chloro-2,4-dimethyl-5,7-dihydropyrrolo[3,4-b]pyridin-6-yl)-[(3R)-1-[6-(trifluoromethyl)pyridazin-3-yl]pyrrolidin-3-yl]methanone] the same measures were 5120 nM and 2010 nM.
On the same counts, the results for `COc1cncc(N2CC[C@@H](C(=O)N3Cc4nc(C)c(Cl)c(C)c4C3)C2)n1` [Example 42, (3-chloro-2,4-dimethyl-5,7-dihydropyrrolo[3,4-b]pyridin-6-yl)-[(3R)-1-(6-methoxypyrazin-2-yl)pyrrolidin-3-yl]methanone] are 2080 nM and 577 nM.
In the case of `Cc1nc2c(c(C)c1Cl)CN(C(=O)[C@@H]1CCN(c3cncc(C4CC4)n3)C1)C2` [Example 43, (3-chloro-2,4-dimethyl-5,7-dihydropyrrolo[3,4-b]pyridin-6-yl)-[(3R)-1-(6-cyclopropylpyrazin-2-yl)pyrrolidin-3-yl]methanone], the EC50 was determined as 7290 nM on human M4 receptor [1] and 1210 nM on human M4 receptor [2].
For `Cc1nc2c(c(C)c1Cl)CN(C(=O)[C@@H]1CCN(c3cnc(C#N)cn3)C1)C2` [Example 44, 5-[(3R)-3-(3-chloro-2,4-dimethyl-5,7-dihydropyrrolo[3,4-b]pyridine-6-carbonyl)pyrrolidin-1-yl]pyrazine-2-carbonitrile] the same measures were 1280 nM and 1110 nM.
For `COc1cnc(N2CC[C@@H](C(=O)N3Cc4nc(C)c(Cl)c(C)c4C3)C2)cn1` [Example 45, (3-chloro-2,4-dimethyl-5,7-dihydropyrrolo[3,4-b]pyridin-6-yl)-[(3R)-1-(5-methoxypyrazin-2-yl)pyrrolidin-3-yl]methanone] the same measures were 1370 nM and 804 nM.
Consider `Cc1cnc(N2CC[C@@H](C(=O)N3Cc4nc(C)c(Cl)c(C)c4C3)C2)cn1` [Example 46, (3-chloro-2,4-dimethyl-5,7-dihydropyrrolo[3,4-b]pyridin-6-yl)-[(3R)-1-(5-methylpyrazin-2-yl)pyrrolidin-3-yl]methanone], for which the EC50 amounted to 814 nM on human M4 receptor [1] and 611 nM at human M4 receptor [2].
`Cc1nc2c(c(C)c1Cl)CN(C(=O)[C@@H]1CCN(c3cnc(C(F)(F)F)cn3)C1)C2` [Example 47, (3-chloro-2,4-dimethyl-5,7-dihydropyrrolo[3,4-b]pyridin-6-yl)-[(3R)-1-[5-(trifluoromethyl)pyrazin-2-yl]pyrrolidin-3-yl]methanone]: the results for the EC50 at human M4 receptor [1] and on human M4 receptor [2] were 1820 nM and 906 nM, respectively.
On the same counts, the results for `COc1ccnc(N2CC[C@@H](C(=O)N3Cc4nc(C)c(Cl)c(C)c4C3)C2)n1` [Example 48, (3-chloro-2,4-dimethyl-5,7-dihydropyrrolo[3,4-b]pyridin-6-yl)-[(3R)-1-(4-methoxypyrimidin-2-yl)pyrrolidin-3-yl]methanone] are 8130 nM and 2200 nM.
`Cc1ccnc(N2CC[C@@H](C(=O)N3Cc4nc(C)c(Cl)c(C)c4C3)C2)n1` [Example 49, (3-chloro-2,4-dimethyl-5,7-dihydropyrrolo[3,4-b]pyridin-6-yl)-[(3R)-1-(4-methylpyrimidin-2-yl)pyrrolidin-3-yl]methanone]: the EC50 at human M4 receptor [1] stood at 3350 nM; on human M4 receptor [2], 1670 nM.
For `Cc1nc2c(c(C)c1Cl)CN(C(=O)[C@@H]1CCN(c3nccc(C(F)(F)F)n3)C1)C2` [Example 50, (3-chloro-2,4-dimethyl-5,7-dihydropyrrolo[3,4-b]pyridin-6-yl)-[(3R)-1-[4-(trifluoromethyl)pyrimidin-2-yl]pyrrolidin-3-yl]methanone] the same measures were 4380 nM and 1820 nM.
Regarding `Cc1cncc(N2CC[C@@H](C(=O)N3Cc4nc(C)c(Cl)c(C)c4C3)C2)n1` [Example 51, (3-chloro-2,4-dimethyl-5,7-dihydropyrrolo[3,4-b]pyridin-6-yl)-[(3R)-1-(6-methylpyrazin-2-yl)pyrrolidin-3-yl]methanone], the concentration giving a half-maximal response (EC50) is 591 nM at human M4 receptor [1] and 363 nM on human M4 receptor [2].
For `Cc1cc(N2CC[C@@H](C(=O)N3Cc4nc(C)c(Cl)c(C)c4C3)C2)cnn1` [Example 52, (3-chloro-2,4-dimethyl-5,7-dihydropyrrolo[3,4-b]pyridin-6-yl)-[(3R)-1-(6-methylpyridazin-4-yl)pyrrolidin-3-yl]methanone] the same measures were 1160 nM and 527 nM.
On the same counts, the results for `COCc1nc2c(c(C)c1Cl)CN(C(=O)[C@@H]1CCN(c3cc(C)ncn3)C1)C2` [Example 53, [3-chloro-2-(methoxymethyl)-4-methyl-5,7-dihydropyrrolo[3,4-b]pyridin-6-yl]-[(3R)-1-(6-methylpyrimidin-4-yl)pyrrolidin-3-yl]methanone] are 503 nM and 184 nM.
